Laboratory results as given in the NIST ThermoML archive (doi:10.1021/je700373r).

Assay: xn = mol fraction of the nth substance listed
Conditions: Fluid (supercritical or subcritical phases), Vibrating tube method

CC1=C(/C=C/C(C)=C/C=C/C(C)=C/C=C/C=C(C)/C=C/C=C(C)/C=C/C2=C(C)CCCC2(C)C)C(C)(C)CCC1 [β-carotene] + O=C=O
mass density [kg/m3]
Conditions	x1 = 1.5e-06	x1 = 2.2e-06	x1 = 2.9e-06	x1 = 4.3e-06	x1 = 4.8e-06	x1 = 5.5e-06	x1 = 6.5e-06
323.15 K, 10000 kPa	398.3	397.9	398.9	398.2	398.4	398.5	398.2
323.15 K, 15000 kPa	702	701.8	702.1	702	702.1	702.2	702
323.15 K, 20000 kPa	785	784.9	785.1	785	785.2	785.3	785
323.15 K, 30000 kPa	870.5	870.5	870.5	870.5	870.6	870.7	870.5
323.15 K, 40000 kPa	922.9	923	923	923	923	923.1	923
333.15 K, 10000 kPa	296.5	297.2	296.7	296.6	296.9	297	296.6
333.15 K, 15000 kPa	607.3	607.7	607.7	607.4	607.7	607.8	607.4
333.15 K, 20000 kPa	724.5	724.7	724.7	724.7	724.7	725	724.6
333.15 K, 30000 kPa	829.7	829.7	829.7	829.7	829.8	829.9	829.7
333.15 K, 40000 kPa	889.8	889.8	889.9	889.9	890	890	889.9
